Results from patent US9682965B2, “Fumagillol heterocyclic compounds and methods of making and using same” (Zafgen, Inc., priority 2015, dated 2017).
Structures can show the parent of a compound that is named as a salt. Where two headings read alike, the source gives them in different places.

How the values were obtained:
[1] = biological target: recombinant human MetAP2 (Homo sapiens (Human), UniProt P50579); test: recombinant human MetAP2 enzyme inhibition assay; assay type: biochemical
Procedure: Compounds are tested for their capacity to inhibit recombinant human MetAP2 activity using the following assay.
Flag tagged Human recombinant MetAP2 expressed and isolated for use as the enzyme source. 10 mM stock solutions of compounds were prepared in 100% DMSO and further diluted in 100% DMSO required concentration to 1 mM stocks. The stock compound solutions and DMSO vehicle controls were diluted to target final compound concentrations using assay buffer to a final concentration of 50 mM HEPES containing 100 mM NaCl, pH adjusted to 7.5. The MAS peptide was formulated to a 7.5 mM stock in distilled water and prior to use further diluted 1:4. […] 40 μl of enzyme was mixed with 100 μl of MnCl2 then further diluted in assay buffer to a final concentration of 16 μg/ml. To test for compound effect on MetAP2 enzyme activity, 5 μl of test compound, 10 μl of MAS substrate/amino acid oxidase mixture, 10 μl of MetAP2 was added to test wells in a 384 well black plate with blank wells containing no enzyme, replaced with 10 μl of assay buffer. All compounds were tested in duplicate on two occasions on the same day.
The plate was sealed with a TopSeal A cover and mixed briefly on an orbital mixer at 900 rpm. The plate was incubated for a further 25 minutes at 25° C. A 5× stock of Amplex buffer was prepared (0.25M sodium phosphate, pH 7.4) and stored at 4° C. […] 25 μl detection reagent was added to each well of the test plate, which was re-sealed and mixed briefly on an orbital shaker.

[2] = tested on: Diet Induced Obese (DIO) C57BL/6 mice; test: 10 day DIO mouse model (body weight, food intake, hematology, blood chemistry); assay type: in vivo; conditions: 240 h, DIO mouse, once a day for 10 days, read-out: DIO Mouse 10-day weight loss vs vehicle; for inhibition in vivo at 0.3 mg/kg: 0.3 mpk sc; for inhibition in vivo at 1 mg/kg: 1.0 mpk sc
Procedure, shortened: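 DIO C57BL/6 mice on 60% kcal fat diet received compounds subcutaneously once daily for 10 days at 1.0, 0.5, 0.3, 0.1 or 0.03 mpk, in 10% DMSO in water, after 3-day vehicle acclimation. Body weight and food intake were recorded daily. Hematology and blood chemistry were taken on Day 11, 24 h post-final dose.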

[3] = tested on: Male Sprague Dawley rats on high fat diet; test: 11 day rat DIO model (body weight, food intake, hematology, blood chemistries); assay type: in vivo; conditions: 264 h, DIO rat, once a day for 11 days, read-out: DIO Rat 11-day weight loss vs vehicle; for inhibition in vivo at 0.3 mg/kg: 0.3 mpk sc
Source text: The objective of this study design is to investigate the efficacy of disclosed compounds in an 11 day rat DIO model used to screen compounds for pharmacologic efficacy on endpoints related to obesity and metabolism. Effects on body weight, food intake, hematology and blood chemistries were the primary readouts of this study design. […] Rats were fed Research Diets D12451 (45% High Fat) and provided water ad libitum. Rats were received and housed in the facility for at least two or three weeks prior to start of test article administration. On Day −4 or −3, rats were randomized into study groups based on body weight and body weights were continued to be recorded daily for the duration of the study. Daily food intake was assessed starting on Study Day −2 by weighing the hopper including the food to avoid loss of food in transfer.
Compounds were formulated into a 100% DMSO stock (at 9 mg/mL) prior to the start, and further diluted into the target working concentration using the vehicle of 10% DMSO in water. Prior to test article administration, starting on Day −3 a dosing acclimation occured with all animals receiving a subcutaneous injection of vehicle (10% DMSO) only for 3 days. Starting on Day 1, test compounds or vehicle were administered based on individual body weight, subcutaneously, once a day for 11 days. All animals were sacrificed on Day 11, approximately 2 hours following the final dosing on Day 11. After sacrifice, whole blood was collected and analyzed for hematology and blood chemistry parameters.
Compounds were tested vs. vehicle at various doses (1.0, 0.5, 0.3, 0.1, 0.03 mpk sc (mg per kg animal weight delivered subcutaneously), and the results are shown in Table 2 below.

[4] = recombinant human MetAP2, MAS peptide substrate, 25 minutes at 25° C

Chain of recombinant human MetAP2 (P50579 whole entry): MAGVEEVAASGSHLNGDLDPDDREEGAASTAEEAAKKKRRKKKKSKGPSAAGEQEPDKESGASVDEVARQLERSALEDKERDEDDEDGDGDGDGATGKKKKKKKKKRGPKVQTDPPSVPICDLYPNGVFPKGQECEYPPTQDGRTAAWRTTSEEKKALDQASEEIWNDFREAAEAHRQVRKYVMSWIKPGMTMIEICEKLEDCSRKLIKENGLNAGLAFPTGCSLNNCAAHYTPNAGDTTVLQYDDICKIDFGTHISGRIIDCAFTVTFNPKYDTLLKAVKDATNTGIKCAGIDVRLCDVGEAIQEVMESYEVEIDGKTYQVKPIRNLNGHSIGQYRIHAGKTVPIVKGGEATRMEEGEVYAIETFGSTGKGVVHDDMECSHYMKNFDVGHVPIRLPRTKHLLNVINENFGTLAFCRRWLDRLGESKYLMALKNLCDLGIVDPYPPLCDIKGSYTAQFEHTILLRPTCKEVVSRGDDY

Row | Structure (SMILES) | IC50 [1, 4] [nM] | inhibition in vivo at 0.3 mg/kg [2] [%] | inhibition in vivo at 0.3 mg/kg [3] [%] | inhibition in vivo at 1 mg/kg [2] [%] | inhibition in vivo at 1 mg/kg ([3]; 1.0 mpk sc) [%] | IC50 [1] [nM]
1 | CO[C@@H]1[C@H](OC(=O)N2CC(CCN3CC4(COC4)C3)C2)CC[C@]2(CO2)[C@H]1[C@@]1(C)O[C@@H]1CC=C(C)C [Example 16, (3R,4S,5S,6R)-5-methoxy-4-((2R,3R)-2-methyl-3-(3-methylbut-2-en-1-yl)oxiran-2-yl)-1-oxaspiro[2.5]octan-6-yl 3-(2-(2-oxa-6-azaspiro[3.3]heptan-6-yl)ethyl)azetidine-1-carboxylate] | < 50 | 3.1 |  |  |  | 
2 | CCN(CC)CCC1(O)CN(C(=O)O[C@@H]2CC[C@]3(CO3)[C@@H]([C@@]3(C)O[C@@H]3CC=C(C)C)[C@@H]2OC)C1 [Example 49, (3R,4S,5S,6R)-5-methoxy-4-((2R,3R)-2-methyl-3-(3-methylbut-2-enyl)oxiran-2-yl)-1-oxaspiro[2.5]octan-6-yl 3-(2-(diethylamino)ethyl)-3-hydroxyazetidine-1-carboxylate] | < 50 | 4.1 |  |  |  | 
3 | CCN(CC)CC[C@H]1CCN(C(=O)O[C@@H]2CC[C@]3(CO3)[C@@H]([C@@]3(C)O[C@@H]3CC=C(C)C)[C@@H]2OC)C1 [Example 52, (S)-((3R,4S,5S,6R)-5-methoxy-4-((2R,3R)-2-methyl-3-(3-methylbut-2-enyl)oxiran-2-yl)-1-oxaspiro[2.5]octan-6-yl) 3-(2-(diethylamino)ethyl)pyrrolidine-1-carboxylate] | < 50 | 8.3 | 4 |  |  | 
4 | CCN(CC)CC[C@H]1CCN(C(=O)O[C@@H]2CC[C@]3(CO3)[C@@H]([C@@]3(C)O[C@@H]3CC=C(C)C)[C@@H]2OC)C1 [Example 53, (S)-((3R,4S,5S,6R)-5-methoxy-4-((2R,3R)-2-methyl-3-(3-methylbut-2-enyl)oxiran-2-yl)-1-oxaspiro[2.5]octan-6-yl) 3-(2-(diethylamino)ethyl)pyrrolidine-1-carboxylate] | < 50 | 10.9 | 3 |  |  | 
5 | CO[C@@H]1[C@H](OC(=O)N2CC(CC(=O)N3CCOCC3)C2)CC[C@]2(CO2)[C@H]1[C@@]1(C)O[C@@H]1CC=C(C)C [Example 62, (3R,4S,5S,6R)-5-methoxy-4-((2R,3R)-2-methyl-3-(3-methylbut-2-enyl)oxiran-2-yl)-1-oxaspiro[2.5]octan-6-yl 3-(2-morpholino-2-oxoethyl)azetidine-1-carboxylate formate] | < 50 | 7.4 |  |  |  | 
6 | CNC(=O)CC1CN(C(=O)O[C@@H]2CC[C@]3(CO3)[C@@H]([C@@]3(C)O[C@@H]3CC=C(C)C)[C@@H]2OC)C1 [Example 63, (3R,4S,5S,6R)-5-methoxy-4-((2R,3R)-2-methyl-3-(3-methylbut-2-enyl)oxiran-2-yl)-1-oxaspiro[2.5]octan-6-yl 3-(2-(methylamino)-2-oxoethyl)azetidine-1-carboxylate] | < 50 | 0.5 |  |  |  | 
7 | CO[C@@H]1[C@H](OC(=O)N2CC(CC(N)=O)C2)CC[C@]2(CO2)[C@H]1[C@@]1(C)O[C@@H]1CC=C(C)C [Example 65, (3R,4S,5S,6R)-5-methoxy-4-((2R,3R)-2-methyl-3-(3-methylbut-2-enyl)oxiran-2-yl)-1-oxaspiro[2.5]octan-6-yl 3-(2-amino-2-oxoethyl)azetidine-1-carboxylate] | < 50 | 2.6 |  |  |  | 
8 | CCN(CC)CCNC(=O)CC1CN(C(=O)O[C@@H]2CC[C@]3(CO3)[C@@H]([C@@]3(C)O[C@@H]3CC=C(C)C)[C@@H]2OC)C1 [Example 66, (3R,4S,5S,6R)-5-methoxy-4-((2R,3R)-2-methyl-3-(3-methylbut-2-enyl)oxiran-2-yl)-1-oxaspiro[2.5]octan-6-yl 3-(2-(2-(diethylamino)ethylamino)-2-oxoethyl)azetidine-1-carboxylate] | < 50 | 7.6 |  |  |  | 
9 | CO[C@@H]1[C@H](OC(=O)N2CC(OC(N)=O)C2)CC[C@]2(CO2)[C@H]1[C@@]1(C)O[C@@H]1CC=C(C)C [Example 72, (3R,4S,5S,6R)-5-methoxy-4-((2R,3R)-2-methyl-3-(3-methylbut-2-enyl)oxiran-2-yl)-1-oxaspiro[2.5]octan-6-yl 3-(carbamoyloxy)azetidine-1-carboxylate] | < 50 | 0.8 |  |  |  | 
10 | CCN(CC)CCNC(=O)OC1CN(C(=O)O[C@@H]2CC[C@]3(CO3)[C@@H]([C@@]3(C)O[C@@H]3CC=C(C)C)[C@@H]2OC)C1 [Example 73, (3R,4S,5S,6R)-5-methoxy-4-((2R,3R)-2-methyl-3-(3-methylbut-2-en-1-yl)oxiran-2-yl)-1-oxaspiro[2.5]octan-6-yl 3-(((2-(diethylamino)ethyl)carbamoyl)oxy)azetidine-1-carboxylate] | < 50 | 7.4 |  |  |  | 
11 | CNC(=O)NC1CN(C(=O)O[C@@H]2CC[C@]3(CO3)[C@@H]([C@@]3(C)O[C@@H]3CC=C(C)C)[C@@H]2OC)C1 [Example 84, (3R,4S,5S,6R)-5-methoxy-4-((2R,3R)-2-methyl-3-(3-methylbut-2-enyl)oxiran-2-yl)-1-oxaspiro[2.5]octan-6-yl 3-(3-methylureido)azetidine-1-carboxylate] | < 50 | 0.8 |  |  |  | 
12 | CCNCCC1CN(C(=O)O[C@@H]2CC[C@]3(CO3)[C@@H]([C@@]3(C)O[C@@H]3CC=C(C)C)[C@@H]2OC)C1 [Example 121, (3R,4S,5S,6R)-5-methoxy-4-((2R,3R)-2-methyl-3-(3-methylbut-2-en-1-yl)oxiran-2-yl)-1-oxaspiro[2.5]octan-6-yl3-(2-(ethylamino)ethyl)azetidine-1-carboxylate] | < 50 | 7.5 | 5 | 12.6 |  | 
13 | CCNC[C@@H]1CCN1C(=O)O[C@@H]1CC[C@]2(CO2)[C@@H]([C@@]2(C)O[C@@H]2CC=C(C)C)[C@@H]1OC [Example 122, (S)-((3R,4S,5S,6R)-5-methoxy-4-((2R,3R)-2-methyl-3-(3-methylbut-2-enyl)oxiran-2-yl)-1-oxaspiro[2.5]octan-6-yl) 2-((ethylamino)methyl)azetidine-1-carboxylate] | < 50 | 3.2 |  |  |  | 
14 | CCNC[C@H]1CCN1C(=O)O[C@@H]1CC[C@]2(CO2)[C@@H]([C@@]2(C)O[C@@H]2CC=C(C)C)[C@@H]1OC [Example 123, (R)-((3R,4S,5S,6R)-5-methoxy-4-((2R,3R)-2-methyl-3-(3-methylbut-2-enyl)oxiran-2-yl)-1-oxaspiro[2.5]octan-6-yl) 2-((ethylamino)methyl)azetidine-1-carboxylate formate] | < 50 |  | 1 | 9.7 | 5.4 | 
15 | CCNCCCC1CN(C(=O)O[C@@H]2CC[C@]3(CO3)[C@@H]([C@@]3(C)O[C@@H]3CC=C(C)C)[C@@H]2OC)C1 [Example 124, (3R,4S,5S,6R)-5-methoxy-4-((2R,3R)-2-methyl-3-(3-methylbut-2-enyl)oxiran-2-yl)-1-oxaspiro[2.5]octan-6-yl 3-(3-(ethylamino)propyl)azetidine-1-carboxylate formate] |  | 4.9 |  |  |  | < 50
